Among the data in US8802678B2, “Carbonylated (aza) cyclohexanes as dopamine D3 receptor ligands” (Bioprojet, priority 2006, dated 2014) are melting point values, retold here.

One may read the melting point as the temperature, or range, at which the solid turns liquid.

Regarding `Cc1cc(N2CCN(CC[C@H]3CC[C@H](NC(=O)CC#N)CC3)CC2)c(Cl)cc1F` [Example 389, N-(4-{2-[4-(2-Chloro-4-fluoro-5-methylphenyl)piperazin-1-yl]ethyl}cyclohexyl)-2-cyanoacetamide], the melting point is 177 °C.
With `Cc1cc(N2CCN(CC[C@H]3CC[C@H](NC(=O)CCCC#N)CC3)CC2)c(Cl)cc1F` [Example 390] the figure was 158 °C; with `COc1ccc(C)c(N2CCN(CC[C@H]3CC[C@H](NC(=O)CCCC#N)CC3)CC2)c1` [Example 391, 4-Cyano-N-(4-{2-[4-(5-methoxy-2-methylphenyl)piperazin-1-yl]ethyl}cyclohexyl)butanamide], 170 °C; with `COc1cc(OC)cc(N2CCN(CC[C@H]3CC[C@H](NC(=O)CCCC#N)CC3)CC2)c1` [Example 392, 4-Cyano-N-(4-{2-[4-(3,5-dimethoxyphenyl)piperazin-1-yl]ethyl}cyclohexyl)butanamide], 147 °C.
In the case of `N#CCCCC(=O)N[C@H]1CC[C@H](CCN2CCN(c3cccc(Cl)c3C#N)CC2)CC1` [Example 393, N-(4-{2-[4-(3-Chloro-2-cyanophenyl)piperazin-1-yl]ethyl}cyclohexyl)-4-cyanobutanamide] it was 189 °C.
In the case of `O=C(N[C@H]1CC[C@H](CCN2CCN(c3cccc(F)c3)CC2)CC1)C1=CCCCC1` [Example 394] it was 195 °C; in that of `N#CCCCC(=O)N[C@H]1CC[C@H](CCN2CCN(c3cccc(F)c3)CC2)CC1` [Example 395, 4-Cyano-N-(4-{2-[4-(3-fluorophenyl)piperazin-1-yl]ethyl}cyclohexyl)butanamide], 170 °C.
Molecule `O=C(COc1ccccc1)N[C@H]1CC[C@H](CCN2CCN(c3cccc(F)c3)CC2)CC1` [Example 396, N-(4-{2-[4-(3-Fluorophenyl)piperazin-1-yl]ethyl}cyclohexyl)-2-phenoxyacetamide] displayed a melting point of 150 °C.
In the case of `NC(=O)CCC(=O)N[C@H]1CC[C@H](CCN2CCN(c3cccc(F)c3)CC2)CC1` [Example 397, N-(4-{2-[4-(3-Fluorophenyl)-piperazin-1-yl]ethyl}cyclohexyl)-succinamide] it was 255 °C.
With `NC(=O)CCC(=O)N[C@H]1CC[C@@H](CCN2CCN(c3cccc(F)c3)CC2)CC1` [Example 398, N-(4-{2-[4-(3-Fluorophenyl)-piperazin-1-yl]ethyl}cyclohexyl)-succinamide] the figure was 169 °C; with `O=C(N[C@H]1CC[C@H](CCN2CCN(c3cccc(F)c3)CC2)CC1)C1=CCCC1` [Example 400, Cyclopent-1-enecarboxylic acid (4-{2-[4-(3-fluorophenyl)-piperazin-1-yl]ethyl}cyclohexyl) amide], 202 °C.
In the case of `N#CCCCC(=O)N[C@H]1CC[C@H](CCN2CCN(c3ccc(F)cc3F)CC2)CC1` [Example 401, 4-Cyano-N-(4-{2-[4-(2,4-difluorophenyl)piperazin-1-yl]ethyl}cyclohexyl)butanamide] it was 167 °C; in that of `N#CCCC(=O)N[C@H]1CC[C@H](CCN2CCN(c3ccc(F)cc3F)CC2)CC1` [Example 403, 3-Cyano-N-(4-{2-[4-(2,4-difluorophenyl)piperazin-1-yl]ethyl}cyclohexyl)propanamide], 165 °C.
Turning to `N#CCCCC(=O)N[C@H]1CC[C@H](CCN2CCN(c3cc(C(F)(F)F)ccc3Cl)CC2)CC1` [Example 404, N-(4-{2-[4-(2-Chloro-5-trifluoromethylphenyl)piperazin-1-yl]ethyl}cyclohexyl)-4-cyanobutanamide], the melting point is 168 °C.
In the case of `COc1ccc(C(F)(F)F)cc1N1CCN(CC[C@H]2CC[C@H](NC(=O)CCCC#N)CC2)CC1` [Example 405, 4-Cyano-N-(4-{2-[4-(2-methoxy-5-trifluoromethylphenyl)piperazin-1-yl]ethyl}cyclohexyl)butanamide] it was 136 °C; in that of `O=C(N[C@H]1CC[C@H](CCN2CCN(c3cccc(F)c3)CC2)CC1)C1=Cc2ccccc2C1` [Example 407, 1H-Indene-2-carboxylic acid (4-{2-[4-(3-fluorophenyl)piperazin-1-yl]ethyl}cyclohexyl) amide], 242 °C; in that of `O=C(N[C@H]1CC[C@H](CCN2CCN(c3cccc(F)c3)CC2)CC1)C1CC=CC1` [Example 408, Cyclopent-3-enecarboxylic acid (4-{2-[4-(3-fluorophenyl)-piperazin-1-yl]ethyl}cyclohexyl) amide], 215 °C.
In the case of `O=C(CC(F)(F)F)N[C@H]1CC[C@H](CCN2CCN(c3cccc(F)c3)CC2)CC1` [Example 409, 3,3,3-Trifluoro-N-(4-{2-[4-(3-fluorophenyl)piperazin-1-yl]ethyl}cyclohexyl)propanamide] it was 195 °C; in that of `CCN(CC)CCC(=O)N[C@H]1CC[C@H](CCN2CCN(c3cccc(F)c3)CC2)CC1` [Example 411, 3-Diethylamino-N-(4-{2-[4-(3-fluorophenyl)piperazin-1-yl]ethyl}cyclohexyl)propanamide], 118 °C.
With `N#CCCC(=O)N[C@H]1CC[C@H](CCN2CCN(c3cccc(F)c3)CC2)CC1` [Example 412, 3-Cyano-N-(4-{2-[4-(3-fluorophenyl)piperazin-1-yl]ethyl}cyclohexyl)propanamide] the figure was 186 °C.
Consider `Cc1ccc(C)c(N2CCN(CC[C@H]3CC[C@H](NC(=O)CCCC#N)CC3)CC2)c1` [Example 413, 4-Cyano-N-(4-{2-[4-(2,5-dimethylphenyl)piperazin-1-yl]ethyl}cyclohexyl)butanamide], for which the melting point amounted to 158 °C.
For `N#CCCCC(=O)N[C@H]1CC[C@H](CCN2CCN(c3cc(Cl)ccc3F)CC2)CC1` [Example 414, N-(4-{2-[4-(5-Chloro-2-fluorophenyl)piperazin-1-yl]ethyl}cyclohexyl)-4-cyanobutanamide], the melting point is 165 °C.
With `COc1ccc(Cl)cc1N1CCN(CC[C@H]2CC[C@H](NC(=O)CCCC#N)CC2)CC1` [Example 415, N-(4-{2-[4-(5-Chloro-2-methoxyphenyl)piperazin-1-yl]ethyl}cyclohexyl)-4-cyanobutanamide] the figure was 152 °C.
With `COc1cccc(N2CCN(CC[C@H]3CC[C@H](NC(=O)CCCC#N)CC3)CC2)c1` [Example 416, 4-Cyano-N-(4-{2-[4-(3-methoxyphenyl)piperazin-1-yl]ethyl}cyclohexyl)butanamide] the figure was 145 °C.
As to `COc1cccc(N2CCN(CC[C@H]3CC[C@H](NC(=O)C4=CCCC4)CC3)CC2)c1` [Example 417, Cyclopent-1-enecarboxylic acid (4-{2-[4-(3-methoxyphenyl)-piperazin-1-yl]ethyl}cyclohexyl) amide], the melting point was 160 °C.
With `COc1cccc(N2CCN(CC[C@H]3CC[C@H](NC(=O)CCC#N)CC3)CC2)c1` [Example 418, 3-Cyano-N-(4-{2-[4-(3-methoxyphenyl)piperazin-1-yl]ethyl}cyclohexyl)propanamide] the figure was 140 °C.
With `COCCCC(=O)N[C@H]1CC[C@H](CCN2CCN(c3cccc(F)c3)CC2)CC1` [Example 419, N-(4-{2-[4-(3-Fluorophenyl)piperazin-1-yl]ethyl}cyclohexyl)-4-methoxybutanamide] the figure was 165 °C; with `O=C(CC1C=CCC1)N[C@H]1CC[C@H](CCN2CCN(c3cccc(F)c3)CC2)CC1` (stereo partly shown) [Example 420, 2-Cyclopent-2-enyl-N-(4-{2-[4-(3-fluorophenyl)piperazin-1-yl]ethyl}cyclohexyl)acetamide], 188 °C.
With `COc1cc(N2CCN(CC[C@H]3CC[C@H](NC(=O)CCCC#N)CC3)CC2)cc(C(F)(F)F)c1` [Example 421, 4-Cyano-N-(4-{2-[4-(3-methoxy-5-trifluoromethylphenyl)piperazin-1-yl]ethyl}cyclohexyl)butanamide] the figure was 147 °C.
Molecule `CCc1ccccc1N1CCN(CC[C@H]2CC[C@H](NC(=O)CC(F)(F)F)CC2)CC1` [Example 422, N-(4-{2-[4-(2-Ethylphenyl)piperazin-1-yl]ethyl}cyclohexyl)-3,3,3-trifluoropropanamide] showed a melting point of 135 °C.
With `N#CCC(=O)N[C@H]1CC[C@H](CCN2CCN(c3cc(C(F)(F)F)c(Cl)cc3Cl)CC2)CC1` [Example 423, 2-Cyano-N-(4-{2-[4-(2,4-dichloro-5-trifluoromethylphenyl)piperazin-1-yl]ethyl}cyclohexyl)acetamide] the figure was 193 °C; with `N#CCCCC(=O)N[C@H]1CC[C@H](CCN2CCN(c3cc(C(F)(F)F)c(Cl)cc3Cl)CC2)CC1` [Example 424, 4-Cyano-N-(4-{2-[4-(2,4-dichloro-5-trifluoromethylphenyl)piperazin-1-yl]ethyl}cyclohexyl)butanamide], 188 °C; with `CCc1cccc(N2CCN(CC[C@H]3CC[C@H](NC(=O)CS(C)(=O)=O)CC3)CC2)c1` [Example 425, N-(4-{2-[4-(3-Ethylphenyl)-piperazin-1-yl]ethyl}cyclohexyl)-2-methanesulfonylacetamide], 185 °C.
`CS(=O)(=O)CC(=O)N[C@H]1CC[C@H](CCN2CCN(c3cccc(F)c3F)CC2)CC1` [Example 426, N-(4-{2-[4-(2,3-Difluorophenyl)-piperazin-1-yl]ethyl}cyclohexyl)-2-methanesulfonylacetamide] returned a melting point of 214 °C.
With `CS(=O)(=O)CC(=O)N[C@H]1CC[C@H](CCN2CCN(c3ccc(Cl)cc3)CC2)CC1` [Example 427, N-(4-{2-[4-(4-Chlorophenyl)-piperazin-1-yl]ethyl}cyclohexyl)-2-methanesulfonylacetamide] the figure was 214 °C.
In the case of `Cc1ccccc1N1CCN(CC[C@H]2CC[C@H](NC(=O)CCCC#N)CC2)CC1` [Example 428, 4-Cyano-N-{4-[2-(4-o-tolylpiperazin-1-yl)ethyl]cyclohexyl}butanamide] it was 160 °C; in that of `Cc1cccc(N2CCN(CC[C@H]3CC[C@H](NC(=O)CCCC#N)CC3)CC2)c1C` [Example 429, 4-Cyano-N-(4-{2-[4-(2,3-dimethylphenyl)piperazin-1-yl]ethyl}cyclohexyl)butanamide], 162 °C.
